Calls of active or inactive are those of the source. The calls are words filed in the database; no cut-off is given here.
What was measured:
U2OS [1] = assay: Induction of morphological changes in human U2OS cells assessed as appearance of hyper chromatic nuclei at IC50 concentration; format: functional, cell-based
MCF7 [2] = assay: Induction of morphological changes in human MCF7 cells assessed as cell detachment at IC50 concentration; format: functional, cell-based
HepG2 [3] = assay: Induction of apoptosis in human HepG2 cells assessed as late apoptotic cells at IC50 concentration by annexin V-FITC/7-AAD staining based flow cytometric analysis (reference value: 0.3 %); format: functional
U2OS [4] = assay: Antiproliferative activity against human U2OS cells assessed as inhibition of cell growth; format: functional, cell-based
HepG2 [5] = assay: Induction of morphological changes in human HepG2 cells assessed as appearance of degenerative features at IC50 concentration; format: functional, cell-based
HepG2 [6] = assay: Induction of apoptosis in human HepG2 cells assessed as apoptotic cells at IC50 concentration by annexin V-FITC/7-AAD staining based flow cytometric analysis (reference value: 0.28 %); format: functional
U2OS [7] = assay: Induction of morphological changes in human U2OS cells assessed as appearance of dense nuclei at IC50 concentration; format: functional, cell-based
HepG2 [8] = assay: Induction of morphological changes in human HepG2 cells assessed as appearance of vesicular nuclei at IC50 concentration; format: functional, cell-based
HepG2 [9] = assay: Cell cycle arrest in human HepG2 cells assessed as accumulation of cells at G0/G1 phase at IC50 concentration incubated for 48 hrs by PI staining based flow cytometric analysis (reference value: 58.2 %); format: functional
HepG2 [10] = assay: Antiproliferative activity against human HepG2 cells assessed as change in cell viability at IC50 concentration; format: functional, cell-based
U2OS [11] = assay: Induction of morphological changes in human U2OS cells assessed as appearance of vesicular nuclei at IC50 concentration; format: functional, cell-based
MCF7 [12] = assay: Induction of morphological changes in human MCF7 cells assessed as appearance of degenerative features at IC50 concentration; format: functional, cell-based
HepG2 [13] = assay: Cell cycle arrest in human HepG2 cells assessed as accumulation of cells at G2/M phase at IC50 concentration incubated for 48 hrs by PI staining based flow cytometric analysis (reference value: 19.4 %); format: functional
HepG2 [14] = assay: Induction of morphological changes in human HepG2 cells assessed as cell enlargement with vacuolated cytoplasm at IC50 concentration; format: functional, cell-based
HepG2 [15] = assay: Inhibition of cell migration in human HepG2 cells assessed as wound confluence at IC50 concentration incubated for 10 hrs by scratch wound assay (reference value: 32.01 +/- 0.67 %); format: functional; parameters: scale not given: the % may be the effect or the level left
MCF7 [16] = assay: Antiproliferative activity against human MCF7 cells assessed as inhibition of cell growth; format: functional, cell-based
MCF7 [17] = assay: Induction of morphological changes in human MCF7 cells assessed as appearance of dense nuclei at IC50 concentration; format: functional, cell-based
HepG2 [18] = assay: Induction of apoptosis in human HepG2 cells assessed as early apoptotic cells at IC50 concentration by annexin V-FITC/7-AAD staining based flow cytometric analysis (reference value: 0.0 %); format: functional
HepG2 [19] = assay: Inhibition of cell migration in human HepG2 cells assessed as wound confluence at IC50 concentration incubated for 24 hrs by scratch wound assay (reference value: 98.01 +/- 0.14 %); format: functional; parameters: scale not given: the % may be the effect or the level left
MCF7 [20] = assay: Induction of morphological changes in human MCF7 cells assessed as appearance of hyper chromatic nuclei at IC50 concentration; format: functional, cell-based
MCF7 [21] = assay: Induction of morphological changes in human MCF7 cells assessed as appearance of vesicular nuclei at IC50 concentration; format: functional, cell-based
U2OS [22] = assay: Induction of morphological changes in human U2OS cells assessed as cell detachment at IC50 concentration; format: functional, cell-based
U2OS [23] = assay: Induction of morphological changes in human U2OS cells assessed as appearance of degenerative features at IC50 concentration; format: functional, cell-based
MCF7 [24] = assay: Antiproliferative activity against human MCF7 cells assessed as change in cell viability at IC50 concentration; format: functional, cell-based
HepG2 [25] = assay: Induction of morphological changes in human HepG2 cells assessed as cell detachment at IC50 concentration; format: functional, cell-based
HepG2 [26] = assay: Antiproliferative activity against human HepG2 cells assessed as inhibition of cell growth; format: functional, cell-based
U2OS [27] = assay: Antiproliferative activity against human U2OS cells assessed as change in cell viability at IC50 concentration; format: functional, cell-based
HepG2 [28] = assay: Induction of apoptosis in human HepG2 cells assessed as fold increase in p53 level by Western blot analysis; format: functional
HepG2 [29] = assay: Induction of apoptosis in human HepG2 cells assessed as late apoptotic cells at IC50 concentration by annexin V-FITC/7-AAD staining based flow cytometric analysis (reference value: 0.0 %); format: functional
HepG2 [30] = assay: Induction of apoptosis in human HepG2 cells assessed as viable cells at IC50 concentration by annexin V-FITC/7-AAD staining based flow cytometric analysis (reference value: 99.7 %); format: functional
U2OS [31] = assay: Induction of morphological changes in human U2OS cells assessed as cell enlargement with vacuolated cytoplasm at IC50 concentration; format: functional, cell-based
HepG2 [32] = assay: Induction of morphological changes in human HepG2 cells assessed as appearance of hyper chromatic nuclei at IC50 concentration; format: functional, cell-based
MCF7 [33] = assay: Induction of morphological changes in human MCF7 cells assessed as cell enlargement with vacuolated cytoplasm at IC50 concentration; format: functional, cell-based
HepG2 [34] = assay: Induction of morphological changes in human HepG2 cells assessed as appearance of dense nuclei at IC50 concentration; format: functional, cell-based
HepG2 [35] = assay: Inhibition of cell migration in human HepG2 cells assessed as wound confluence at IC50 concentration incubated for 4 hrs by scratch wound assay (reference value: 19.38 +/- 0.12 %); format: functional; parameters: scale not given: the % may be the effect or the level left
HepG2 [36] = assay: Cell cycle arrest in human HepG2 cells assessed as accumulation of cells at S phase at IC50 concentration incubated for 48 hrs by PI staining based flow cytometric analysis (reference value: 21.0 %); format: functional
[37] = Cytotoxicity against human WI-38 cells assessed as inhibition of cell growth; format: toxicity, cell-based
[38] = Inhibition of cell migration in human […] cells at IC50 concentration incubated for 24 hrs relative to control; format: functional
HepG2 [39] = assay: Induction of apoptosis in human HepG2 cells assessed as fold increase in p27 level by Western blot analysis; format: functional
HepG2 [40] = assay: Induction of apoptosis in human HepG2 cells assessed as fold increase in p21 level by Western blot analysis; format: functional

N=C(N)c1ccc(-c2ccc(-c3cc(Cl)cc(Cl)c3)o2)nc1
Activity (U2OS [1]): Active
Activity (MCF7 [2]): Active
Activity (HepG2 [3]): 14.3%
IC50 (U2OS [4]): 1810 nM
Activity (HepG2 [5]): Active
Activity (HepG2 [6]): 66.1%
Activity (U2OS [7]): Active
Activity (HepG2 [8]): Active
Activity (HepG2 [9]): 59.6%
Activity (HepG2 [10]): Active
Activity (U2OS [11]): Active
Activity (MCF7 [12]): Active
Activity (HepG2 [13]): 20.6%
Activity (HepG2 [14]): Active
Activity (HepG2 [15]): 47.49%
IC50 (MCF7 [16]): 1690 nM
Activity (MCF7 [17]): Active
Activity (HepG2 [18]): 54%
Activity (HepG2 [19]): 64.83%
Activity (MCF7 [20]): Active
Activity (MCF7 [21]): Active
Activity (U2OS [22]): Active
Activity (U2OS [23]): Active
Activity (MCF7 [24]): Active
Activity (HepG2 [25]): Active
IC50 (HepG2 [26]): 1870 nM
Activity (U2OS [27]): Active
fold change (FC) (HepG2 [28]): ~2.5
Activity (HepG2 [29]): 0.1%
Activity (HepG2 [30]): 31.5%
Activity (U2OS [31]): Active
Activity (HepG2 [32]): Active
Activity (MCF7 [33]): Active
Activity (HepG2 [34]): Active
Activity (HepG2 [35]): 14.4%
Activity (HepG2 [36]): 19.1%
IC50 [37]: 101000 nM

N=C(N)c1ccc(-c2ccc(-c3ccc(Cl)cc3)o2)nc1
Activity (U2OS [1]): Active
inhibition (INH) [38]: ~55%
Activity (MCF7 [2]): Active
Activity (HepG2 [3]): 16.9%
IC50 (U2OS [4]): 1730 nM
Activity (HepG2 [5]): Active
fold change (FC) (HepG2 [39]): ~2.3
Activity (HepG2 [6]): 70.5%
Activity (U2OS [7]): Active
Activity (HepG2 [8]): Active
Activity (HepG2 [9]): 9.2%
Activity (HepG2 [10]): Active
Activity (U2OS [11]): Active
Activity (MCF7 [12]): Active
Activity (HepG2 [13]): 47.1%
Activity (HepG2 [14]): Active
Activity (HepG2 [15]): 33.72%
IC50 (MCF7 [16]): 1640 nM
Activity (MCF7 [17]): Active
Activity (HepG2 [18]): 54%
Activity (HepG2 [19]): 46.65%
Activity (MCF7 [20]): Active
Activity (MCF7 [21]): Active
Activity (U2OS [22]): Active
Activity (U2OS [23]): Active
Activity (MCF7 [24]): Active
Activity (HepG2 [25]): Active
IC50 (HepG2 [26]): 1550 nM
Activity (U2OS [27]): Active
fold change (FC) (HepG2 [28]): ~2.5
Activity (HepG2 [29]): 0.4%
Activity (HepG2 [30]): 28.7%
Activity (U2OS [31]): Active
fold change (FC) (HepG2 [40]): ~3
Activity (HepG2 [32]): Active
Activity (MCF7 [33]): Active
Activity (HepG2 [34]): Active
Activity (HepG2 [35]): 14.19%
Activity (HepG2 [36]): 43.6%
IC50 [37]: 77000 nM

N=C(N)c1ccc(-c2ccc(-c3ccc(F)cc3)o2)nc1
Activity (U2OS [1]): Active
inhibition (INH) [38]: ~55%
Activity (MCF7 [2]): Active
Activity (HepG2 [3]): 10.6%
IC50 (U2OS [4]): 1720 nM
Activity (HepG2 [5]): Active
fold change (FC) (HepG2 [39]): ~3.1
Activity (HepG2 [6]): 59.3%
Activity (U2OS [7]): Active
Activity (HepG2 [8]): Active
Activity (HepG2 [9]): 19.4%
Activity (HepG2 [10]): Active
Activity (U2OS [11]): Active
Activity (MCF7 [12]): Active
Activity (HepG2 [13]): 41.4%
Activity (HepG2 [14]): Active
Activity (HepG2 [15]): 32.89%
IC50 (MCF7 [16]): 1600 nM
Activity (MCF7 [17]): Active
Activity (HepG2 [18]): 47.4%
Activity (HepG2 [19]): 42.09%
Activity (MCF7 [20]): Active
Activity (MCF7 [21]): Active
Activity (U2OS [22]): Active
Activity (U2OS [23]): Active
Activity (MCF7 [24]): Active
Activity (HepG2 [25]): Active
IC50 (HepG2 [26]): 1060 nM
Activity (U2OS [27]): Active
fold change (FC) (HepG2 [28]): ~2.5
Activity (HepG2 [29]): 0.1%
Activity (HepG2 [30]): 41.9%
Activity (U2OS [31]): Active
fold change (FC) (HepG2 [40]): ~5
Activity (HepG2 [32]): Active
Activity (MCF7 [33]): Active
Activity (HepG2 [34]): Active
Activity (HepG2 [35]): 14.07%
Activity (HepG2 [36]): 39.1%
IC50 [37]: 89000 nM
